{
  "source": "paper PMC11711049",
  "about": "(Cancer Science, 2024)",
  "key": {"[1]": {"tested_on": "patients with advanced solid tumors", "conditions": "cited from earlier work"}, "[2]": {"tested_on": "models harboring FGFR genetic alterations", "conditions": "preclinical studies; cited from earlier work"}, "[3]": {"tested_on": "gastric cancer with FGFR2 gene amplification or FGFR2 protein high expression", "assay": "Investigator-assessed tumor response"}, "[4]": {"conditions": "Gastric cancer (N = 9), 140 mg once daily"}},
  "note": "Values joined by “and” are separate entries in the source; they are usually repeats but may differ in a detail not shown here. Equal entries are not always repeated.",
  "data": [
    {"smiles": "CNC(=O)n1ccc2cc(Oc3ccnc(NC(=O)c4ccc(C5CCN(CCO)CC5)cc4)c3)c(OCCOC)cc21", "note": "[Tasurgratinib]", "values": [
      {"measurement": "dose‐limiting toxicity", "setting": "[1]; 180‐mg cohort, one patient", "value": "grade 3 aspartate aminotransferase (AST)/alanine aminotransferase (ALT) increase"},
      {"measurement": "dose‐limiting toxicities", "setting": "[1]; daily oral doses of up to 140 mg", "value": "no dose‐limiting toxicities"},
      {"measurement": "recommended dose for the expansion part (Part 2)", "setting": "[1]; once daily", "value": 140, "unit": "mg"},
      {"measurement": "AEs ≥grade 3 or dose‐limiting toxicities in Part 1", "setting": "[1]; patients receiving 140 mg once daily", "value": "no AEs ≥grade 3 or dose‐limiting toxicities"},
      {"measurement": "antitumor activity", "setting": "[2]", "value": "potent antitumor activity"},
      {"measurement": "BOR: CR", "setting": "[3]; [4]", "value": "0 (0.0) n (%)"},
      {"measurement": "BOR: PD", "setting": "[3]; [4]", "value": "4 (44.4) n (%)"},
      {"measurement": "BOR: PR", "setting": "[3]; [4]", "value": "1 (11.1) n (%)"},
      {"measurement": "BOR: SD", "setting": "[3]; [4]", "value": "4 (44.4) n (%)"},
      {"measurement": "DCR (CR + PR + SD)", "setting": "[3]; [4]", "value": "5 (55.6) n (%)"},
      {"measurement": "ORR (CR + PR)", "setting": "[3]; [4]", "value": "1 (11.1) n (%)"},
      {"measurement": "OS rate (95% CI) at 6 months", "setting": "[3]; [4]", "value": "22.2 (3.4, 51.3) %"},
      {"measurement": "OS rate (95% CI) at 12 months", "setting": "[3]; [4]", "value": "11.1 (0.6, 38.8) %"},
      {"measurement": "OS, median (95% CI)", "setting": "[3]; [4]", "value": "4.27 months and 4.27 (2.23, 7.95) months"},
      {"measurement": "PFS rate (95% CI) at 6 months", "setting": "[3]; [4]", "value": "0.0 (NE, NE) %"},
      {"measurement": "PFS rate (95% CI) at 12 months", "setting": "[3]; [4]", "value": "0.0 (NE, NE) %"},
      {"measurement": "PFS, median (95% CI)", "setting": "[3]; [4]", "value": "3.25 months and 3.25 (0.95, 4.86) months"},
      {"measurement": "ORR", "setting": "[3]; evaluable gastric cancer patients, n = 9, 95% CI 0.3, 48.2", "value": 11.1, "unit": "%"},
      {"measurement": "partial responses", "setting": "[3]; gastric cancer patients, one partial response", "value": 11.1, "unit": "%"}
    ]}
  ]
}
